Test results published in patent US20240173329A1, “BELVARAFENIB FOR USE IN TREATMENT OF BRAIN CANCERS” (Genentech, Inc., priority 2021, published 2024).
Like-named read-outs stand apart in the source and are kept apart here.

Key:
[1] = Pharmacokinetic profile and brain distribution in mice after oral administration; assay type: in vivo, mice (ICR); details: for Kp / Cmax / Tmax / AUC(0-t) / MRT last / half-life / AUC(0-inf): ICR (CD-1), mouse
Experimental: Example 1 evaluated pharmacokinetic profile and brain distribution of belvarafenib in mice after oral administration.
The mouse strain was ICR (CD-1®) supplied by Orient Bio Inc., Korea.
The mice were kept in conventional animal lab cages for 5 days for acclimation before the start of the experiment. The cages were polysulfone 1291H (W425×D266×H185 mm, Techniplast, Italy). Twelve mice were housed in each cage at a temperature of 22±2° C., a relative humidity of 50±20%, a ventilation frequency of 10-15 times/h, a 12 hour light/dark cycle, a light intensity of 150-300 Lux, at least weekly cage replacement. The mice were fed Picolab Rodent diet (5053, Lab Diet, USA) with abundant tap water.
The mice were dosed with belvarafenib dihydrochloride, 99.6% purity, that was stored at room temperature. Dosing was based on active ingredient free base and was corrected for assay and water content. The dosing vehicle was DMSO (5%), cremophore EL (5%), and deionized water (90%). Belvarafenib for dosing (28.08 mg) was dissolved in 14.40 mL of the vehicle for a final concentration of 1.950 mg/mL.
In a single one day dosing regimen, mice were fasted overnight. The body weight of the mice was measured on the day of treatment, from which dosing volumes were set. […] The mice were fed 4 hours post-dose.
Blood (0.3 mL) was collected from the retro-orbital plexus at 0.5, 1, 2, 4, 7, 24, 48, and 72 hours after belvarafenib administration. Plasma was obtained by centrifugation at 12,000 rpm for 2 minutes (Eppendorf) and then harvested and stored at −20° C. (Panasonic, MDF-U334-PK) until analysis.
After bloodletting of mice at each time point, the brain was collected immediately without perfusion. Brain tissue was washed one to two times with saline to remove surface blood. The brains were then trimmed. The collected brain tissue was accurately weighed and mixed with 4-fold saline based on brain weight (a final dilution factor of 5-fold). Each brain sample was then homogenized and placed in a 1.5 mL tube and stored at −20° C. (Panasonic, MDF-U334-PK) until analysis.
Plasma and brain of untreated animals were similarly obtained for use as a blank matrix.
Plasma and brain concentrations of belvarafenib determined by analysis using LC-MS/MS (Waters UPLC H-Class/Xevo TQ (Waters USA)).
Pharmacokinetic parameters of belvarafenib were calculated from plasma and brain concentration-time data by a non-compartmental method using Phoenix™ WinNonlin 8.1 (Certara, USA). The peak plasma and brain concentration (Cmax) and the corresponding time (Tmax) were directly obtained from the raw data. The area under the plasma curve (AUClast) was obtained by linear-log trapezoidal summation. Other PK parameters such as AUC from dosing time extrapolated to infinity (AUCinf), half-life (t1/2) and mean residence time (MTRlast) were calculated using WinNonlin. The plasma and brain concentrations of belvarafenib were presented as MEAN±S.D. The brain to plasma (B/P) ratio of Belvarafenib was calculated by dividing AUClast in the brain by AUClast in the plasma.

[2] = target: colony stimulating factor 1 receptor (CSF1R) (Homo sapiens, UniProt P07333); experiment: panel of 189 kinase assays; assay type: biochemical
colony stimulating factor 1 receptor (CSF1R), sequence (P07333 20-972, species assumed): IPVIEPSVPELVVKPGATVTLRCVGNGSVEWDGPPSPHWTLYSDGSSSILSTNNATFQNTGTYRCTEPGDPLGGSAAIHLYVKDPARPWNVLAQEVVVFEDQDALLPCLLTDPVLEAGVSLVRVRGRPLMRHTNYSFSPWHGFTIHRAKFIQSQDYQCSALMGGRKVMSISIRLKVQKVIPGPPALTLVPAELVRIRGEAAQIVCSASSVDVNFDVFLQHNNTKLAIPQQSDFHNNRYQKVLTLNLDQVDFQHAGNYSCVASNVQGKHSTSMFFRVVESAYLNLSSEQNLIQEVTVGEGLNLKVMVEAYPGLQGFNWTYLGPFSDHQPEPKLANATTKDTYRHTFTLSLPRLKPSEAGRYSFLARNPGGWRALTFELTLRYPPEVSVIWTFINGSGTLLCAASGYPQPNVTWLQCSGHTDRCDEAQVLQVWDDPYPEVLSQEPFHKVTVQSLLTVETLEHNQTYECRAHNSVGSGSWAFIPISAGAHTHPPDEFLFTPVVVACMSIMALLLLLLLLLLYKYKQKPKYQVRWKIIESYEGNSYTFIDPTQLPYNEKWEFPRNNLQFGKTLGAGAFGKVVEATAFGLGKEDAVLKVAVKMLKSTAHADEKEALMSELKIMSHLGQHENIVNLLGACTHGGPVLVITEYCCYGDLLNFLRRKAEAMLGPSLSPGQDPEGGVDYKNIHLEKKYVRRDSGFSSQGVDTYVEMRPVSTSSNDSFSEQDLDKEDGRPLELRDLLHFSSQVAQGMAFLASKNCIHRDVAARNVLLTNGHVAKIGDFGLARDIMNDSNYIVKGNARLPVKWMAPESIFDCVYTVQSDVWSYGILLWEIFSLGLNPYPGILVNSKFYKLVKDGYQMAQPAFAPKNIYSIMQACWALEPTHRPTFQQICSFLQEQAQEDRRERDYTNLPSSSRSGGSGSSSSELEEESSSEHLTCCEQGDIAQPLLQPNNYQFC

[3] = system: solid tumors harboring mutations in BRAF, KRAS, or NRAS genes; experiment: open-label Phase Ia dose-escalation study; assay type: in vivo, human; details: for Median DOR: updated
Experimental: For instance, a completed, open-label, Phase Ia, dose-escalation investigated several doses and schedules of belvarafenib in patients with solid tumors harboring mutations in BRAF, KRAS, or NRAS genes. Efficacy was analyzed for 67 of 72 subjects who had at least 1 post-baseline tumor assessment. […] Fifty-nine (88.06%) subjects developed an event (progression of disease or death), all of which were reported as progressive disease (PD). In addition, median progression-free survival was 11.53 weeks and the 95% confidence interval for the median was [7.12 weeks, 13.38 weeks). […] Median DOR was elevated to 30.18 weeks in 800 mg BID group and 23.99 weeks in total group including DOR of a subject which is 100.29 weeks.

[4] = Phase I relative bioavailability and food effect study in healthy subjects; assay type: in vivo; details: 200 mg single dose
Experimental: In another Phase I, single dose, randomized, crossover relative bioavailability and food effect study in healthy subjects, the influence of a formulation change from the Phase I to Phase II tablet on belvarafenib exposure was evaluated. A total of 18 healthy subjects were enrolled in the study and received the following randomized treatments: one 150-mg and one 50-mg Phase I tablet in a fed state, two 100-mg Phase II tablets in a fed state, or two 100-mg Phase II tablets in a fasted state, with an 18-day washout between treatments. There was a positive effect of food on belvarafenib exposure in the fed state compared to the fasted state.

Molecule `Cc1ccc2c(Nc3cccc(Cl)c3F)nccc2c1NC(=O)c1csc2c(N)ncnc12` [Belvarafenib, 4-amino-N-(1-((3-chloro-2-fluorophenyl)amino)-6-methylisoquinolin-5-yl)thieno[3,2-d]pyrimidine-7-carboxamide] has a Kp ([1]; oral 30 mg/kg, AUClast brain / AUClast plasma, read-out: B/P ratio) of 0.8, a Cmax ([1]; oral 30 mg/kg, brain) of 6100 ng/g and a Tmax ([1]; oral 30 mg/kg, brain) of 7 h. The AUC(0-t) ([1]; oral 30 mg/kg, plasma) was 133 µg·h/mL, the Cmax ([1]; oral 30 mg/kg, plasma) was 6210 ng/mL and the Tmax ([1]; oral 30 mg/kg, plasma) was 7 h. It also gave a Kp ([1]; male, brain/plasma, oral, 15 mg/kg, read-out: B/P) of 0.93, an MRT last ([1]; male, in vivo, oral 15 mg/kg, plasma) of 14.3 h and a Kp ([1]; male, oral 15 mg/kg, AUClast brain / AUClast plasma, read-out: B/P ratio) of 0.929. For the same molecule, the Cmax ([1]; male, oral 15 mg/kg, brain) was 5240 ng/g, the MRT last ([1]; male, oral 15 mg/kg, brain) was 11.8 h and the Tmax ([1]; male, oral 15 mg/kg, brain) was 7 h. The half-life ([1]; male, oral 15 mg/kg, brain) was 6.3 h, the AUC(0-inf) ([1]; male, oral 15 mg/kg, plasma) was 84.3 µg·h/mL and the AUC(0-t) ([1]; male, oral 15 mg/kg, plasma) was 84.3 µg·h/mL. The Cmax ([1]; male, oral 15 mg/kg, plasma) was 4780 ng/mL, the Tmax ([1]; male, oral 15 mg/kg, plasma) was 4 h and the half-life ([1]; male, oral 15 mg/kg, plasma) was 6.6 h. It also gave an AUC(0-inf) ([1]; male, oral 30 mg/kg, plasma) of 133 µg·h/mL, an AUC(0-t) ([1]; male, oral 30 mg/kg, plasma) of 133 µg·h/mL and an AUCinf ([1]; oral 15 mg/kg, brain) of 78297.5 ng·h/g. For the same molecule, the AUClast ([1]; oral 15 mg/kg, brain) was 78259.6 ng·h/g, the AUCinf ([1]; oral 30 mg/kg, brain) was 100848.0 ng·h/g and the AUClast ([1]; oral 30 mg/kg, brain) was 100735.8 ng·h/g. For the same molecule, the general clinical signs ([1]; single oral 15 mg/kg, pre- and post-dosing periods) was “No clinical signs were observed”, the inhibition at 1 µM [2] was > 90% and the “Median DOR” value ([3]; 800 mg BID group) was 30.18 weeks. The “Best overall response rate (BORR)” value ([3]; 67 evaluable subjects) was 8.96%, the “objective response rate (ORR)” value ([3]; 67 evaluable subjects) was 4.48% and the “subjects who developed an event (progression of disease or death)” value ([3]; 67 evaluable subjects) was 88.06%. For the same molecule, the “BORR, subgroup re-analysis” value ([3]; BRAF-mutant melanoma subjects (13)) was 7.69%, the median progression-free survival ([3]; in vivo) was 11.53 weeks and the “DOR of a subject” value ([3]; single subject) was 100.29 weeks. For the same molecule, the Disease control ([3]; subjects treated with 100 mg QD dose level or above) was 50.57%, the “Median DOR” value ([3]; total group) was 23.99 weeks and the “BORR, updated results” value ([3]; updated results) was 10.45%. For the same molecule, the “ORR, updated results” value ([3]; updated results) was 4.48%, the “AUC0-inf increase, fed state compared to fasted state” value [4] was ~2.8 fold and the “Cmax increase, fed state compared to fasted state” value [4] was “approximately 2.2 fold”. The adverse events [4] was “No serious adverse events, adverse events of special interest, or deaths were reported”.
